Key:
Test in all cases: Pre-emergent herbicidal activity (Table A)
Assay type in all cases: in vivo
Barnyardgrass = details: Echinochloa crus-galli, pre-emergence, Bygr, 11.2 kg/ha, 10-14 days, read-out: herbicidal rating (% inhibition)
Experimental: (§1) The herbicidal ratings used in Tables A and B were assigned according to a scale based on the percent inhibition of each plant species. The herbicide rating symbols in Tables A and B are defined as follows: […]
(§2) One set of pre-emergent tests was conducted as follows:
(§3) Topsoil was placed in a pan and compacted to a depth of 0.95 to 1.27 cm. from the top of the pan. A predetermined number of seeds of each of several monocotyledonous and dicotyledonous annual plant species and/or vegetative propagules of various perennial plant species were placed on top of the soil. The soil required to level fill a pan after seeding or adding vegetative propagules was weighed into another pan. A known amount of the test compound dissolved or suspended in an organic solvent or water and applied in acetone or water as a carrier was thoroughly mixed with this cover soil, and the herbicide/soil mixture was used as a cover layer for the previously prepared pan.
(§4) The plant species usually regarded as weeds which were utilized in one set of pre-emergent activity tests, the data for which are shown in Table A, are identified by letter headings printed diagonally above the columns according to the following legend: […]

Quackgrass = details: pre-emergence, Rhqg, 11.2 kg/ha, 10-14 days, read-out: herbicidal rating (% inhibition)
Experimental: as §1, §2, §3, §4

Common Lambsquarters = details: Chenopodium album, pre-emergence, Colq, 11.2 kg/ha, 10-14 days, read-out: herbicidal rating (% inhibition)
Experimental: as §1, §2, §3, §4

Yellow Nutsedge = details: Cyperus, pre-emergence, Yens, 11.2 kg/ha, 10-14 days, read-out: herbicidal rating (% inhibition)
Experimental: as §1, §2, §3, §4

Cocklebur = details: Xanthium strumarium, pre-emergence, Cobu, 11.2 kg/ha, 10-14 days, read-out: herbicidal rating (% inhibition)
Experimental: as §1, §2, §3, §4

Velvetleaf = details: Abutilon theophrasti, pre-emergence, Vele, 11.2 kg/ha, 10-14 days, read-out: herbicidal rating (% inhibition)
Experimental: as §1, §2, §3, §4

Rhizome Johnsongrass = details: Sorghum halepense, pre-emergence, Rhjg, 11.2 kg/ha, 10-14 days, read-out: herbicidal rating (% inhibition)
Experimental: as §1, §2, §3, §4

Canada thistle = details: Cirsium arvense, pre-emergence, Cath, 11.2 kg/ha, 10-14 days, read-out: herbicidal rating (% inhibition)
Experimental: as §1, §2, §3, §4

Morningglory = details: Ipomoea, pre-emergence, Mogl, 11.2 kg/ha, 10-14 days, read-out: herbicidal rating (% inhibition)
Experimental: as §1, §2, §3, §4

Downy Brome = details: Bromus tectorum, pre-emergence, Dobr, 11.2 kg/ha, 10-14 days, read-out: herbicidal rating (% inhibition)
Experimental: as §1, §2, §3, §4

Pennsylvania Smartweed = details: pre-emergence, Pesw, 11.2 kg/ha, 10-14 days, read-out: herbicidal rating (% inhibition)
Experimental: as §1, §2, §3, §4

Structure (SMILES)	inhibition at 11200 g/ha (Barnyardgrass) [%]	inhibition at 11200 g/ha (Quackgrass) [%]	inhibition at 11200 g/ha (Common Lambsquarters) [%]	inhibition at 11200 g/ha (Yellow Nutsedge) [%]	inhibition at 11200 g/ha (Cocklebur) [%]	inhibition at 11200 g/ha (Velvetleaf) [%]	inhibition at 11200 g/ha (Rhizome Johnsongrass) [%]	inhibition at 11200 g/ha (Canada thistle) [%]	inhibition at 11200 g/ha (Morningglory) [%]	inhibition at 11200 g/ha (Downy Brome) [%]	inhibition at 11200 g/ha (Pennsylvania Smartweed) [%]
COC(=O)c1c(OC)nc(C(F)(F)F)c(C(=O)n2ccc(C)n2)c1CC(C)C [Compound 51, 3-pyridinecarboxylic acid, 2-methoxy-4-(2-methylpropyl)-5-[(3-methy1-1H-pyrazo1-1-yl)carbonyl]-6-(trifluoromethyl)-, methyl ester]	75 to 100	75 to 100	75 to 100	25 to 49	25 to 49	75 to 100	75 to 100	75 to 100	75 to 100	75 to 100	75 to 100
COC(=O)c1c(OC)nc(C(F)(F)F)c(C(=O)N2CCCC2)c1CC(C)C [Compound 66, 3-pyridinecarboxylic acid, 2-methoxy-4-(2-methylpropyl)-5-(1-pyrrolidinylcarbonyl)-6-(trifluoromethyl)-, methyl ester]	75 to 100	75 to 100	75 to 100	0 to 24	0 to 24	25 to 49	0 to 24	75 to 100	50 to 74	75 to 100	25 to 49
COC=Nc1c(OC)nc(C(F)(F)F)c(C(=O)OC)c1CC(C)C [Compound 56, 3-pyridinecarboxylic acid, 6-methoxy-5-[(methoxymethylene)amino]-4-(2-methylpropyl)-2-(trifluoromethyl)-, methyl ester]	75 to 100	0 to 24	75 to 100	0 to 24	0 to 24	0 to 24	0 to 24	0 to 24	0 to 24	75 to 100	0 to 24
C=CCOc1nc(C(F)(F)F)c(C(=O)OC)c(CC(C)C)c1C(=O)OCC [Compound 23, 3,5-pyridinecarboxylic acid, 4-(2-methy1-propyl)-2-(2-propenyloxy)-6-(trifluoromethyl)-, 3-ethyl 5-methyl ester, hydrate (1:0.3)]	75 to 100	25 to 49	75 to 100	0 to 24	0 to 24	25 to 49	75 to 100	0 to 24	25 to 49	75 to 100	75 to 100
CCCCOC(=O)c1c(C(F)(F)F)nc(OC)c(C(=O)OC)c1CC(C)C [Compound 16, 3,5-pyridinedicarboxylic acid, 2-methoxy-4-(2-methylpropyl)-6-(trifluoromethyl)-, 5 butyl 3-methyl ester]	75 to 100	75 to 100	75 to 100	0 to 24	0 to 24	75 to 100	0 to 24	50 to 74	75 to 100	75 to 100	75 to 100
COC(=O)c1c(C(F)(F)F)nc(OC)c(C(=O)n2ccnc2)c1CC(C)C [Compound 28, 3-pyridinecarboxylic acid, 6-methoxy-4-(2-methylpropyl)-5-(1H-imidazo1-1-ylcarbonyl)-2-(trifluoromethyl)-, methyl ester]	75 to 100	0 to 24	75 to 100	0 to 24	75 to 100	25 to 49	0 to 24	0 to 24	50 to 74	75 to 100	50 to 74
COc1nc(C(F)(F)F)c(C(=O)SC)c(C2CC2)c1C(=O)SC [Compound 12, 3,5-pyridinedicarbothioic acid, 4-cyclopropy1-2-methoxy-6-(trifluoromethyl)-, S,S-dimethyl ester]	75 to 100	75 to 100	75 to 100	25 to 49	25 to 49	75 to 100	0 to 24	25 to 49	75 to 100	75 to 100	75 to 100
COC(=O)c1c(OC)nc(C(F)(F)F)c(N)c1CC(C)C [Compound 36, 3-pyridinecarboxylic acid, 5-amino-2-methoxy-4-(2-methylpropyl)-6-(trifluoromethyl)-, methyl ester]	75 to 100	75 to 100	75 to 100	0 to 24	0 to 24	50 to 74	75 to 100	25 to 49	50 to 74	75 to 100	75 to 100
COc1nc(C(F)(F)F)c(C(=O)n2cccn2)c(C2CCC2)c1C(=O)n1cccn1 [Compound 59, 4-cyclobuty1-2-methoxy-3,5-bis(1H-pyrazo1-1-ylcarbonyl)-6-(trifluoromethyl)-pyridine]	75 to 100	75 to 100	75 to 100	0 to 24	0 to 24	50 to 74	0 to 24	0 to 24	75 to 100	75 to 100	75 to 100
COC(=O)c1c(OC)nc(C(F)(F)F)c(C(=O)n2cncn2)c1CC(C)C [Compound 60, 3-pyridinecarboxylic acid, 2-methoxy-4-(2-methylpropyl)-5-(1H-1,2,4-triazo1-1-ylcarbonyl)-6-(trifluoromethyl)-, methyl ester]	75 to 100	75 to 100	75 to 100	0 to 24	25 to 49	75 to 100	75 to 100	75 to 100	75 to 100	75 to 100	75 to 100
CCOc1nc(C(F)(F)F)c(C(=O)n2cccn2)c(CC(C)C)c1C(=O)OC [Compound 49, 3-pyridinecarboxylic acid, 2-ethoxy-4-(2-methylpropyl)-5-(1H-pyrazo1-1-ylcarbonyl)-6-(trifluoromethyl)-, methyl ester]	75 to 100	75 to 100	75 to 100	75 to 100	25 to 49	75 to 100	50 to 74	75 to 100	75 to 100	75 to 100	75 to 100
COC(=O)c1c(OC)nc(C(F)(F)F)c(C2=NC(C)CS2)c1CC(C)C (stereo not shown) [Compound 74, 3-pyridinecarboxylic acid, 5-(4,5-dihydro-4-methy1-2-thiazolyl)-2-methoxy-4-(2-methylpropyl)-6-(trifluoromethyl)-, methyl ester]	75 to 100	75 to 100	75 to 100	25 to 49	75 to 100	75 to 100	75 to 100	75 to 100	75 to 100	75 to 100	75 to 100
CCOc1nc(C(F)(F)F)c(C(=O)OC)c(CC(C)C)c1C(=O)O [Compound 18, 3,5-pyridinedicarboxylic acid, 2-ethoxy-4-(2-methylpropyl)-6-(trifluoromethyl)-, 5-methyl ester]	0 to 24	0 to 24	50 to 74	0 to 24	25 to 49	0 to 24	0 to 24	0 to 24	0 to 24	–	0 to 24
